# pIC50: −log10 of the molar value.
# Molecular target: T1, hMAGL (Homo sapiens, UniProt Q99685)
# T1 sequence (Q99685 1-303): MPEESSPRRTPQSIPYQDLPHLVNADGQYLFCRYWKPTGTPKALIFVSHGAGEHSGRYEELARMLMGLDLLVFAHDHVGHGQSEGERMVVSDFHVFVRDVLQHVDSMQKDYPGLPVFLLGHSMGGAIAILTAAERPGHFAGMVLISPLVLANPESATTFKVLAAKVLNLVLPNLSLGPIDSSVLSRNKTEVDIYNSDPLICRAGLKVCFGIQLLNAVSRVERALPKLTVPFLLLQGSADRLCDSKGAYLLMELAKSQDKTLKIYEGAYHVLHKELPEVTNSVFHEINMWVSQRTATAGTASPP
# Assay: 2-AG assay: MAGL inhibition, hydrolysis of 2-arachidonoylglycerol to arachidonic acid followed by mass spectrometry
# Type: biochemical
# In short: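 MAGL preincubated with compound 15 min at RT in 50 mM Tris, 1 mM EDTA, 0.01% Tween-20, 2.5% DMSO; reaction started with 8 μM 2-AG (final), […], 30 min at RT. Quenched with acetonitrile containing d8-arachidonic acid; arachidonic acid quantified by RapidFire SPE-triple quad MS as arachidonic acid/d8 ratio.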
row,Compound,pIC50
1,"O=C(N1CC2(CCN(Cc3cc(C(F)(F)F)no3)CC2)C1)N1CC2(CC(n3cnc(C(F)(F)F)n3)C2)C1 [Example 317, [7-[[3-(trifluoromethyl)isoxazol-5-yl]methyl]-2,7-diazaspiro[3.5]nonan-2-yl]-[6-[3-(trifluoromethyl)-1,2,4-triazol-1-yl]-2-azaspiro[3.3]heptan-2-yl]methanone]",7.17
2,"O=C(N1CC2(CC(Cc3n[nH]c(C4CC4)n3)C2)C1)N1CC2(CC(n3cnc(C(F)F)n3)C2)C1 [Example 318, [6-[(5-cyclopropyl-1H-1,2,4-triazol-3-yl)methyl]-2-azaspiro[3.3]heptan-2-yl]-[6-[3-(difluoromethyl)-1,2,4-triazol-1-yl]-2-azaspiro[3.3]heptan-2-yl]methanone]",7.20
3,"CC(C)(C)n1ccnc1CN1CC2(C1)CN(C(=O)N1CC3(CC(n4cnc(C(F)(F)F)n4)C3)C1)C2 [Example 319, [6-[(1-tert-butylimidazol-2-yl)methyl]-2,6-diazaspiro[3.3]heptan-2-yl]-[6-[3-(trifluoromethyl)-1,2,4-triazol-1-yl]-2-azaspiro[3.3]heptan-2-yl]methanone]",7.23
4,"O=C(N1CC2(CC(Cc3n[nH]c(C(F)(F)F)n3)C2)C1)N1CC2(CC(n3cnc(C(F)F)n3)C2)C1 [Example 320, [6-[3-(difluoromethyl)-1,2,4-triazol-1-yl]-2-azaspiro[3.3]heptan-2-yl]-[6-[[5-(trifluoromethyl)-1H-1,2,4-triazol-3-yl]methyl]-2-azaspiro[3.3]heptan-2-yl]methanone]",7.28
5,"O=C(N1CC2(CC(n3cnc(C4CC4)n3)C2)C1)N1CC2(CN(Cc3ccn(CCC(F)(F)F)n3)C2)C1 [Example 321, [6-(3-cyclopropyl-1,2,4-triazol-1-yl)-2-azaspiro[3.3]heptan-2-yl]-[6-[[1-(3,3,3-trifluoropropyl)pyrazol-3-yl]methyl]-2,6-diazaspiro[3.3]heptan-2-yl]methanone]",7.31
6,"Cn1c(CN2CC3(C2)CN(C(=O)N2CC4(CC(n5cnc(C6CC6)n5)C4)C2)C3)nnc1C(F)(F)F [Example 322, [6-(3-cyclopropyl-1,2,4-triazol-1-yl)-2-azaspiro[3.3]heptan-2-yl]-[6-[[4-methyl-5-(trifluoromethyl)-1,2,4-triazol-3-yl]methyl]-2,6-diazaspiro[3.3]heptan-2-yl]methanone]",7.33
7,"O=C(N1CC2(CC(n3cnc(C4CC4)n3)C2)C1)N1CC2(CN(Cc3noc(C(F)(F)F)n3)C2)C1 [Example 323, [6-(3-cyclopropyl-1,2,4-triazol-1-yl)-2-azaspiro[3.3]heptan-2-yl]-[6-[[5-(trifluoromethyl)-1,2,4-oxadiazol-3-yl]methyl]-2,6-diazaspiro[3.3]heptan-2-yl]methanone]",7.44
8,"N=S(=O)(c1cnn(CC2CC3(C2)CN(C(=O)N2CC4(CC(n5cnc(C(F)F)n5)C4)C2)C3)c1)C(F)(F)F (stereo not drawn) [Example 324, [6-[3-(difluoromethyl)-1,2,4-triazol-1-yl]-2-azaspiro[3.3]heptan-2-yl]-[6-[[4-(trifluoromethylsulfonimidoyl)pyrazol-1-yl]methyl]-2-azaspiro[3.3]heptan-2-yl]methanone]",7.59
9,"O=C(N1CC2(CC(Cn3ncnc3C(F)(F)F)C2)C1)N1CC2(CC(n3cnc(C4(O)CC4)n3)C2)C1 [Example 325, [6-[3-(1-hydroxycyclopropyl)-1,2,4-triazol-1-yl]-2-azaspiro[3.3]heptan-2-yl]-[6-[[5-(trifluoromethyl)-1,2,4-triazol-1-yl]methyl]-2-azaspiro[3.3]heptan-2-yl]methanone]",7.64
10,"O=C(N1CC2(CC(Cc3nc(C(F)(F)F)c[nH]3)C2)C1)N1CC2(CC(n3cnc(C(F)F)n3)C2)C1 [Example 326, [6-[3-(difluoromethyl)-1,2,4-triazol-1-yl]-2-azaspiro[3.3]heptan-2-yl]-[6-[[4-(trifluoromethyl)-1H-imidazol-2-yl]methyl]-2-azaspiro[3.3]heptan-2-yl]methanone]",7.65
11,"CS(=O)(=O)c1cnn(CC2CC3(C2)CN(C(=O)N2CC4(CC(n5cnc(C(F)(F)F)n5)C4)C2)C3)c1 [Example 327, [6-[(4-mesylpyrazol-1-yl)methyl]-2-azaspiro[3.3]heptan-2-yl]-[6-[3-(trifluoromethyl)-1,2,4-triazol-1-yl]-2-azaspiro[3.3]heptan-2-yl]methanone]",7.65
12,"O=C(N1CC2(CC(n3cnc(C(F)(F)F)n3)C2)C1)N1CC2(CN(Cc3nc(C4(C(F)(F)F)CC4)no3)C2)C1 [Example 328, [6-[[3-[1-(trifluoromethyl)cyclopropyl]-1,2,4-oxadiazol-5-yl]methyl]-2,6-diazaspiro[3.3]heptan-2-yl]-[6-[3-(trifluoromethyl)-1,2,4-triazol-1-yl]-2-azaspiro[3.3]heptan-2-yl]methanone]",7.83
13,"O=C(N1CC2(CCN(Cc3cc(C(F)(F)F)no3)CC2)C1)N1CC2(CC(n3cnc(C4CC4)n3)C2)C1 [Example 329, [6-(3-cyclopropyl-1,2,4-triazol-1-yl)-2-azaspiro[3.3]heptan-2-yl]-[7-[[3-(trifluoromethyl)isoxazol-5-yl]methyl]-2,7-diazaspiro[3.5]nonan-2-yl]methanone]",7.86
14,"Cn1nc(CC2CC3(C2)CN(C(=O)N2CC4(CC(n5cnc(C6(N)CC6)n5)C4)C2)C3)cc1C(F)(F)F [Example 330, [6-[3-(1-aminocyclopropyl)-1,2,4-triazol-1-yl]-2-azaspiro[3.3]heptan-2-yl]-[6-[[l-methyl-5-(trifluoromethyl)pyrazol-3-yl]methyl]-2-azaspiro[3.3]heptan-2-yl]methanone]",7.93
15,"O=C(N1CC2(CC(Cc3ncn(CC(F)(F)F)n3)C2)C1)N1CC2(CC(n3cnc(C(F)(F)F)n3)C2)C1 [Example 331, [6-[[1-(2,2,2-trifluoroethyl)-1,2,4-triazol-3-yl]methyl]-2-azaspiro[3.3]heptan-2-yl]-[6-[3-(trifluoromethyl)-1,2,4-triazol-1-yl]-2-azaspiro[3.3]heptan-2-yl]methanone]",7.93
16,"CS(=O)(=O)c1cnn(CC2CC3(C2)CN(C(=O)N2CC4(CC(n5cnc(C6CC6)n5)C4)C2)C3)c1 [Example 332, [6-(3-cyclopropyl-1,2,4-triazol-1-yl)-2-azaspiro[3.3]heptan-2-yl]-[6-[(4-mesylpyrazol-1-yl)methyl]-2-azaspiro[3.3]heptan-2-yl]methanone]",7.94
17,"O=C(N1CC2(CC(Cn3ncnc3C(F)(F)F)C2)C1)N1CC2(CC(n3cnc(C(F)(F)F)n3)C2)C1 [Example 333, [6-[3-(trifluoromethyl)-1,2,4-triazol-1-yl]-2-azaspiro[3.3]heptan-2-yl]-[6-[[5-(trifluoromethyl)-1,2,4-triazol-1-yl]methyl]-2-azaspiro[3.3]heptan-2-yl]methanone]",7.99
18,"O=C(N1CC2(CC(Cc3cc(C(F)F)n[nH]3)C2)C1)N1CC2(CC(n3cnc(C(F)F)n3)C2)C1 [Example 334, [6-[[3-(difluoromethyl)-1H-pyrazol-5-yl]methyl]-2-azaspiro[3.3]heptan-2-yl]-[6-[3-(difluoromethyl)-1,2,4-triazol-1-yl]-2-azaspiro[3.3]heptan-2-yl]methanone]",8.01
19,"O=C(N1CC2(CC(Cc3n[nH]c(C4(C(F)(F)F)CC4)n3)C2)C1)N1CC2(CC(n3cnc(C(F)F)n3)C2)C1 [Example 335, [6-[3-(difluoromethyl)-1,2,4-triazol-1-yl]-2-azaspiro[3.3]heptan-2-yl]-[6-[[5-[1-(trifluoromethyl)cyclopropyl]-1H-1,2,4-triazol-3-yl]methyl]-2-azaspiro[3.3]heptan-2-yl]methanone]",8.04
20,"O=C(N1CC2(CC(Cc3cn(CC(F)(F)F)nn3)C2)C1)N1CC2(CC(n3cnc(C(F)(F)F)n3)C2)C1 [Example 336, [6-[[1-(2,2,2-trifluoroethyl)triazol-4-yl]methyl]-2-azaspiro[3.3]heptan-2-yl]-[6-[3-(trifluoromethyl)-1,2,4-triazol-1-yl]-2-azaspiro[3.3]heptan-2-yl]methanone]",8.05
21,"O=C(N1CC2(CC(Cc3nc(C(F)(F)F)c[nH]3)C2)C1)N1CC2(CC(n3cnc(C4(O)CC4)n3)C2)C1 [Example 337, [6-[3-(1-hydroxycyclopropyl)-1,2,4-triazol-1-yl]-2-azaspiro[3.3]heptan-2-yl]-[6-[[4-(trifluoromethyl)-1H-imidazol-2-yl]methyl]-2-azaspiro [3.3]heptan-2-yl]methanone]",8.21
22,"O=C(N1CC2(CC(n3cnc(C4CC4)n3)C2)C1)N1CC2(CN(Cc3nc(C4(C(F)(F)F)CC4)no3)C2)C1 [Example 338, [6-(3-cyclopropyl-1,2,4-triazol-1-yl)-2-azaspiro[3.3]heptan-2-yl]-[6-[[3-[1-(trifluoromethyl)cyclopropyl]-1,2,4-oxadiazol-5-yl]methyl]-2,6-diazaspiro[3.3]heptan-2-yl]methanone]",8.39
23,"O=C(N1CC2(CC(Cc3ncn(CC(F)(F)F)n3)C2)C1)N1CC2(CC(n3cnc(C4CC4)n3)C2)C1 [Example 339, [6-(3-cyclopropyl-1,2,4-triazol-1-yl)-2-azaspiro[3.3]heptan-2-yl]-[6-[[1-(2,2,2-trifluoroethyl)-1,2,4-triazol-3-yl]methyl]-2-azaspiro[3.3]heptan-2-yl]methanone]",8.43
24,"O=C(N1CC2(CC(Cc3cnn(CC(F)(F)F)n3)C2)C1)N1CC2(CC(n3cnc(C(F)(F)F)n3)C2)C1 [Example 340, [6-[[2-(2,2,2-trifluoroethyl)triazol-4-yl]methyl]-2-azaspiro[3.3]heptan-2-yl]-[6-[3-(trifluoromethyl)-1,2,4-triazol-1-yl]-2-azaspiro[3.3]heptan-2-yl]methanone]",8.44

# — patent US20260374756A1, “HETEROCYCLIC COMPOUNDS AS INHIBITORS OF MONOACYLGLYCEROL LIPASE (MAGL)” (Hoffmann-La Roche Inc., priority 2022, published 2026)
